From patent publication US8741319B2, “Methods and compositions for treating anxiety disorders or symptoms thereof” (Pondera Biotechnologies Inc., priority 2009, dated 2014)
Entries after “also recorded” stand apart in the source; their conditions may differ.

Columns and labels:
humans = experiment: Hot-water finger-immersion induced pain trials (Example 1); type: in vivo, human; details: for undesirable side effects, first phase: 18 subjects, rolipram 50 μg, forskolin 200 mg, magnesium sulfate 2 g/5 g, caffeine 200 mg, each given within two-agent formulations; for side effects / complaints, second phase: 60 subjects, caffeine 50 mg, theophylline 300 mg, ULDN 5 μg, magnesium sulfate 750 mg, alone or combined; for pain thresholds and tolerance as compared to baseline latencies: index finger in 130° F. water, single dose, not blinded as to condition
Protocol: For these trials, a hot-water finger-immersion pain paradigm was used, measuring both pain threshold and tolerance. The index finger of the non-dominant hand was submerged in 130° F. water, and the time to the experience of pain (threshold) and the need to withdraw (tolerance) were measured. Baseline scores were compared to those obtained under experimental conditions. Experimental conditions were not blinded for this study.
For the preliminary part of this study, 18 subjects (10 males, 8 females; ages 27-86) were given each of the following single-dose formulations on separate days, to determine the best doses for pain reduction and side-effect profiles:
The same induced pain paradigm was used for the second phase of this study. 60 subjects (38 males, 22 females, ages 18-86), including all of the subjects in the first phase of the study, participated in the study. All subjects were administered each of the following formulations in a single dose, on separate days; while 18 of these subjects (10 males, 8 females) were given these formulations using a twice daily administration over the course of 3 consecutive days. The following formulations were administered to each subject to assess the effect of each agent, as compared to baseline, as well as the synergistic impact of co-treatment: […]

Healthy volunteers = experiment: Cold-pressor induced pain study (Example 8A); type: in vivo, human; details: 12 subjects, blinded, within-subject
Protocol: In addition to the hot-water finger immersion studies described above, two Jeio Tech cold-pressor testing units were purchased since this methodology represents the state-of-the art in induced pain research.
Following several preliminary multi-site trials using a wide variety of agents, doses, and formulations, a cold-pressor induced pain study was conducted in order to determine the impact of specific agents on the experience of pain threshold and tolerance. Healthy volunteers were recruited who were not taking any relevant medications or supplements, resulting in a total of 12 subjects (7 men, 5 women; ages 18-86). During the initial phase of this study, the following agents and doses were administered to subjects and pain threshold and tolerance latencies were assessed. […] Subjects were blinded as to each condition. Active agents were compared to each subject's baseline and placebo latencies, using a within-subject design. […]

[1] = test system: outpatient psychotherapy patients with various forms of Distress Dysfunction; experiment: Clinical case studies, outpatient psychotherapy patients (Example 8B); type: in vivo, human; details: 5 or 125 μg once daily within formulations
Protocol: All treatment was unblinded, and explained as novel formulations for Distress Dysfunction. […] Synergistic Enhancers were often included in the formulations, particularly SSRI and SNRI medications that the patients were typically taking prior to adding the experimental formulations (about 25% of patients). For those patients already on an SSRI or SNRI, the following daily doses were used, once the patient was stabilized on the co-treatment formulation: escitalopram (10 mg, once daily), fluoxetine (20 mg, once daily), citalopram (20 mg, once daily), or venlafaxine (75 mg, once daily). For most patients, this was either the same or lower dose than previously prescribed. If the patient was not already on an SSRI or SNRI, one or more Synergistic Enhancers were added to the formulation for more serious conditions, including 5HTP (50 mg, twice daily), SAMe (200 mg, once daily), PharmaGABA (200 mg, once daily), and tyrosine (500 mg, once daily) (about 18% of patients). Ten pain patients began the treatment program using a prescription narcotic pain medication. […] As an alternative to narcotic pain medications, NSAIDs, especially white willow bark (250 mg, twice daily) were added to the formulation (about 10% of patients). […]

[2] = test system: patients in psychotherapy suffering from various Distress Dysfunction conditions; experiment: 10 month trial, agents alone vs combined, 19 psychotherapy patients (Example 5); details: for therapeutic benefits on Distress Dysfunction symptoms: 19 patients, 2 weeks per agent or formulation, agents not identified to patients
Protocol: To determine the relative benefits of administering agents alone as compared to their combined synergistic benefits, a trial was conducted over a 10 month period with 19 patients in psychotherapy suffering from various Distress Dysfunction conditions, including anxiety, obsessive-compulsive disorders, depression, drug and alcohol addictions, behavioral addictions, psychogenic and neuropathic pain, eating disorders, and sexual dysfunctions.
Over the course of 8 weeks, each patient was administered all of the individual agents. During the next 8 weeks, each patient rotated through the following formulations, each given for a 2 week period: […]
All patients already on an SSRI or SNRI continued on this medication in combination with ULDN.

subjects = experiment: Hot-water finger-immersion pain threshold/tolerance, five subjects (Example 4); type: in vivo, human; details: separate testing sessions
males with ADHD = experiment: Attention-Deficit Disorder case studies (Example 10); type: in vivo, human; details: for improvement of ADHD behavior and attention: single case studies (males)
Protocol: To assess the therapeutic benefit of the novel cotreatment formulations of the invention with Attention-Deficit Disorders, three ongoing case studies are being conducted, one focused on the use of stimulants and the other based on “nutriceuticals.”
A person with severe uncontrolled ADHD has had serious problems with their inappropriate behaviors, emotions, and attitudes, both at school and at home, for more than 8 years. […] NAC (600 mg, twice daily) was added to the ongoing medication. […] The young person was able to sit quietly for longer periods of time and was clearly more cooperative and socially appropriate. […] Increased improvement has been observed over the past month, and the cotreatment formulation is being continued.
A person with moderate ADHD has had difficulties paying attention at school and cooperating at home. They have never been given prescription medications for the problem, and behavioral interventions have not been successful. […] Then, NAC (600 mg, twice daily), magnesium sulfate (500 mg, twice daily), and ginkgo biloba (120 mg, once daily) were added to the ALC. […] Progress has been steadily improving, using this novel cotreatment formulation during this 3 week trial, which is ongoing.
A person with severe ADHD has had problems in all aspects of their life due to this disorder. Despite above average intelligence, they were unable to complete high school. After dropping out of school, they were able to earn a GED. Over time, they were unable to hold regular employment. […] They will continue this co-treatment formulation, given its obvious benefits.

In the case of `C=C[C@@]1(C)CC(=O)[C@]2(O)[C@@]3(C)[C@@H](O)CCC(C)(C)[C@@H]3[C@H](O)[C@H](OC(C)=O)[C@@]2(C)O1` [Forskolin], the “undesirable side effects, first phase” value (humans) was “produced mild agitation for several subjects”.

With `COc1ccc(C2CNC(=O)C2)cc1OC1CCCC1` (centres unmarked) [Rolipram, rolipram] the “undesirable side effects, first phase” value (humans) was “produced a queasy sensation for several of the subjects” and the side effects (humans; one subject took 250 μg of rolipram) was “experienced nausea, vomiting, and diarrhea”.

For `COc1cccc(C2(O)CCCCC2CN(C)C)c1` (centres unmarked) [Tramadol, tramadol], the “pain threshold and tolerance latencies vs baseline and placebo, agents administered alone” value (Healthy volunteers) was “did not generally exhibit analgesia on the cold pressor”.

For `O=C1CC[C@@]2(O)[C@H]3Cc4ccc(O)c5c4[C@@]2(CCN3CC2CC2)[C@H]1O5` [ULDN, naltrexone], the “side effects / complaints, second phase” value (humans) was “had neither benefit nor side effects”, the “consistency of benefit by naltrexone dose” value [1] was “the benefits from using the relatively higher dose (125 micrograms) were more consistent within and among patients” and the “therapeutic benefits on Distress Dysfunction symptoms” value (“therapeutic benefits” below) ([2]; once daily) was “nearly half of the patients experienced no effect from ULDN alone”. For the same compound, the “improvement in symptoms in patients on ongoing SSRI or SNRI medication” value ([2]; ULDN 5 μg added, patients on Lexapro, Prozac, Paxil or Effexor) was 10 patients had dramatic improvement in their symptoms.

`CC(=O)Nc1ccc(O)cc1` [acetaminophen] was tested, and the “increase in pain threshold/tolerance (over baseline)” value (subjects) was “in order of greatest pain relief, was (3), then (2) then (1)”, the “therapeutic benefits” value ([2]; once daily) was “no therapeutic benefits were reported or observed” and the “maintenance treatment, remaining six months of the study” value ([2]; each patient on the formulation that worked best) was “used effectively by four pain patients”. For the same compound, the increased distress symptoms ([2]; human, in vivo) was “at least half of the patients reported some degree of increased distress symptoms” and the “pain threshold and tolerance latencies vs baseline and placebo, agents administered alone” value (Healthy volunteers) was “no more effective than placebo in the cold pressor paradigm”.

With `CC(=O)O[C@H](CC(=O)[O-])C[N+](C)(C)C` [acetyl-L-carinitine] the “improvement of ADHD behavior and attention” value (males with ADHD) was “no observable benefits”.

For `CC(=O)Oc1ccccc1C(=O)O` [aspirin], the “increase in pain threshold/tolerance (over baseline)” value (subjects) was “showed no change in pain threshold when administered alone” and the “pain threshold and tolerance latencies vs baseline and placebo, agents administered alone” value (Healthy volunteers) was “no more effective than placebo in the cold pressor paradigm”.

For `Cn1c(=O)c2c(ncn2C)n(C)c1=O` [caffeine], the “undesirable side effects, first phase” value (humans) was “produced mild agitation for several subjects”, the “side effects / complaints, second phase” value (humans) was “complained of these symptoms when given these drugs alone” and the “pain thresholds and tolerance as compared to baseline latencies” value (humans) was “trend toward increased pain sensitivity (hyperalgesia)”. The increased distress symptoms ([2]; agent administered alone, once daily, 2 weeks) was “at least half of the patients reported some degree of increased distress symptoms” and the “pain threshold and tolerance latencies vs baseline and placebo, agents administered alone” value (Healthy volunteers) was “tended to result in shorter pain tolerance latencies”.

In the case of `N[C@@H](CCC(=O)O)C(=O)O` [glutamic acid], the “pain threshold and tolerance latencies vs baseline and placebo, agents administered alone” value (Healthy volunteers) was “showed clear hyperalgesic effects when administered alone; also recorded: tended to result in shorter pain tolerance latencies”.

`CC(C)Cc1ccc(C(C)C(=O)O)cc1` (centres unmarked) [ibuprophen] was tested, and the “pain threshold and tolerance latencies vs baseline and placebo, agents administered alone” value (Healthy volunteers) was “no more effective than placebo in the cold pressor paradigm”.

With `O=S(=O)([O-])[O-].[Mg+2]` [magnesium sulfate] the “undesirable side effects, first phase” value (humans) was “produced mild queasy feelings for several subjects” and the “side effects / complaints, second phase” value (humans) was “had neither benefit nor side effects”.

For `COC(=O)C(c1ccccc1)C1CCCCN1` (centres unmarked) [methylphenidate], the side effects (males with ADHD; single case studies) was “produced mild restlessness, sleep difficulties, and reduced appetite; also recorded: several undesirable side-effects, including insomnia, anorexia, and agitation” and the “improvement of ADHD behavior and attention” value (males with ADHD) was “only modest improvements; also recorded: almost no benefit”.

In the case of `COc1ccc2c3c1O[C@H]1C(=O)CC[C@@]4(O)[C@@H](C2)N(C)CC[C@]314` [oxycodone (5 mg), oxycodone], the “pain threshold and tolerance latencies vs baseline and placebo, agents administered alone” value (Healthy volunteers) was “consistently showed this effect” and the “pain threshold and tolerance latencies vs baseline and placebo, agents administered alone” value (Healthy volunteers; listed as lower dose oxycodone) was “did not generally exhibit analgesia on the cold pressor”.

For `O=C(Nc1c(Cl)cncc1Cl)c1ccc(OC(F)F)c(OCC2CC2)c1` [roflumilast], the “therapeutic benefits” value ([2]; once daily) was “no therapeutic benefits were reported or observed”, the increased distress symptoms ([2]; human, in vivo) was “at least half of the patients reported some degree of increased distress symptoms” and the “pain threshold and tolerance latencies vs baseline and placebo, agents administered alone” value (Healthy volunteers) was “showed clear hyperalgesic effects when administered alone; also recorded: tended to result in shorter pain tolerance latencies”.

`Cn1c(=O)c2[nH]cnc2n(C)c1=O` [theophylline] was tested, and the “side effects / complaints, second phase” value (humans) was “complained of these symptoms when given these drugs alone”, the “pain thresholds and tolerance as compared to baseline latencies” value (humans) was “trend toward increased pain sensitivity (hyperalgesia)” and the “pain threshold and tolerance latencies vs baseline and placebo, agents administered alone” value (Healthy volunteers) was “tended to result in shorter pain tolerance latencies”.
